Measurements published in article PMC8909834, “An Orally Bioavailable and Highly Efficacious Inhibitor of CDK9/FLT3 for the Treatment of Acute Myeloid Leukemia” (Cancers, 2022).

Legend:
Assay in all cases: Kinase Hotspot radiolabel assay
Format in all cases: biochemical
Conditions in all cases: read-out: % Residual Activity
[1] = target: T1, AKT1 (Homo sapiens, UniProt P31749)
T1 construct: purchased Reaction Biology Corporation (Kinase HotSpot)
In short: (§1)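 Hotspot radioactive kinase assay, compound fixed at 1 µM, broad 369-kinase selectivity screen.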

[2] = target: T2, AKT3 (Homo sapiens, UniProt Q9Y243)
T2 construct: purchased Reaction Biology Corporation (Kinase HotSpot)
In short: as §1

[3] = target: T3, ALK6/BMPR1B (Homo sapiens, UniProt O00238)
T3 construct: purchased Reaction Biology Corporation (Kinase HotSpot)
In short: as §1

[4] = target: T4, ARK5/NUAK1 (Homo sapiens, UniProt O60285)
T4 construct: purchased Reaction Biology Corporation (Kinase HotSpot)
In short: as §1

[5] = target: T5, BRSK2 (Homo sapiens, UniProt Q8IWQ3)
T5 construct: purchased Reaction Biology Corporation (Kinase HotSpot)
In short: as §1

[6] = target: T6, CAMK1b (Homo sapiens, UniProt Q6P2M8)
T6 construct: purchased Reaction Biology Corporation (Kinase HotSpot)
In short: as §1

[7] = target: T7, CDK4/cyclin D3 (Homo sapiens, UniProt P11802)
T7 construct: purchased Reaction Biology Corporation (Kinase HotSpot)
In short: as §1

[8] = target: T8, CDK6/cyclin D1 (Homo sapiens, UniProt Q00534)
T8 construct: purchased Reaction Biology Corporation (Kinase HotSpot)
In short: as §1

[9] = target: T9, CK1g1 (Homo sapiens, UniProt Q9HCP0)
T9 construct: purchased Reaction Biology Corporation (Kinase HotSpot)
In short: as §1

[10] = target: T10, DDR1 (Homo sapiens, UniProt Q08345)
T10 construct: purchased Reaction Biology Corporation (Kinase HotSpot)
In short: as §1

[11] = target: T11, DYRK1B (Homo sapiens, UniProt Q9Y463)
T11 construct: purchased Reaction Biology Corporation (Kinase HotSpot)
In short: as §1

[12] = target: T12, ERBB4/HER4 (Homo sapiens, UniProt Q15303)
T12 construct: purchased Reaction Biology Corporation (Kinase HotSpot)
T12 sequence (Q15303 26-1308): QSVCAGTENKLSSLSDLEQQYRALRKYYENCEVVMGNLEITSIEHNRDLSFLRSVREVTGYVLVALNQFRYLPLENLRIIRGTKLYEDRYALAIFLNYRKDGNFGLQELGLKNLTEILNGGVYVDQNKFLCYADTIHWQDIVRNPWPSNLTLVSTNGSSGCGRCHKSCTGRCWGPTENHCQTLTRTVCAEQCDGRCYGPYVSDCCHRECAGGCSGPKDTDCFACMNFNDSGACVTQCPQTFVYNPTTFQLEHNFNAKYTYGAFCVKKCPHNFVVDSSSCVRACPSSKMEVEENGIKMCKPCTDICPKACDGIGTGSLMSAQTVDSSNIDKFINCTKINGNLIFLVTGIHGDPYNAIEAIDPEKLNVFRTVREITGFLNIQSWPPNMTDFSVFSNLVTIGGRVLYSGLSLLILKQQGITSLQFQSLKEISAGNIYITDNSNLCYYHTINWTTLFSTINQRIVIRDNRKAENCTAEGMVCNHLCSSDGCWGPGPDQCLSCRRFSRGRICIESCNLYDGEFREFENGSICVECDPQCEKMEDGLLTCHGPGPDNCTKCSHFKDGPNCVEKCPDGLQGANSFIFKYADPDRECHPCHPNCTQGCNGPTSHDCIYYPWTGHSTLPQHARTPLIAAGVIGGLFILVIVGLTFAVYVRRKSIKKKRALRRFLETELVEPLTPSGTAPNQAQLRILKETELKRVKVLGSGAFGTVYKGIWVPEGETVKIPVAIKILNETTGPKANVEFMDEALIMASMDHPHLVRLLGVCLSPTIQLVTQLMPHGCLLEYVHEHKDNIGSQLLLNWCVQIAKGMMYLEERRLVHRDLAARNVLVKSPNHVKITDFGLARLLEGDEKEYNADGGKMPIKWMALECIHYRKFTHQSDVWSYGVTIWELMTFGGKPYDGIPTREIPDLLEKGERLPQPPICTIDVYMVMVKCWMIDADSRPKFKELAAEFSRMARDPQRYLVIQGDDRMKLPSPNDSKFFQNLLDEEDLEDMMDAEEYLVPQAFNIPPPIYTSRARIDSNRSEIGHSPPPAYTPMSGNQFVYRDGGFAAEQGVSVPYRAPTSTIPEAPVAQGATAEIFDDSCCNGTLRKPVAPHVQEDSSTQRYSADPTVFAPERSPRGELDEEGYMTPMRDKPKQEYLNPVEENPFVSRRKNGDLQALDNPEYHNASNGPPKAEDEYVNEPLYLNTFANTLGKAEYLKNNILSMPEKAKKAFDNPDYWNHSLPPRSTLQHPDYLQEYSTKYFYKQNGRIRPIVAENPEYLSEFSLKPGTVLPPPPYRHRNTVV
In short: as §1

[13] = target: T13, ERK1 (Homo sapiens, UniProt P27361)
T13 construct: purchased Reaction Biology Corporation (Kinase HotSpot)
In short: as §1

[14] = target: T14, FGR (Homo sapiens, UniProt P09769)
T14 construct: purchased Reaction Biology Corporation (Kinase HotSpot)
T14 sequence (P09769 whole entry): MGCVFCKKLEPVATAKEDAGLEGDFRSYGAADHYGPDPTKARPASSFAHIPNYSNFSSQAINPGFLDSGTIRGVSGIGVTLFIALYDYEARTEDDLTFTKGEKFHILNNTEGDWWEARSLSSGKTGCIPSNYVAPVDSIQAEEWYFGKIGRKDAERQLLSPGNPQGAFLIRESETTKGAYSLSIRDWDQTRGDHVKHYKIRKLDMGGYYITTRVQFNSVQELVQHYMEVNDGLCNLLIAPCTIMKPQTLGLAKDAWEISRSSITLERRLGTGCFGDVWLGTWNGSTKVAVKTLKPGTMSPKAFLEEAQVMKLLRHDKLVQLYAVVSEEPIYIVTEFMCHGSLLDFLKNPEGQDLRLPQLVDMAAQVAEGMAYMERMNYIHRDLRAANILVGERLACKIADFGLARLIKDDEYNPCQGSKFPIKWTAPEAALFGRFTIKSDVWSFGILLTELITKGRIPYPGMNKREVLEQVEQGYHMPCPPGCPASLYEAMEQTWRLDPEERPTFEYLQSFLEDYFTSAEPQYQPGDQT
In short: as §1

[15] = target: T15, IKKa/CHUK (Homo sapiens, UniProt O15111)
T15 construct: purchased Reaction Biology Corporation (Kinase HotSpot)
In short: as §1

[16] = target: T16, IRAK4 (Homo sapiens, UniProt Q9NWZ3)
T16 construct: purchased Reaction Biology Corporation (Kinase HotSpot)
In short: as §1

[17] = target: T17, JAK1 (Homo sapiens, UniProt P23458)
T17 construct: purchased Reaction Biology Corporation (Kinase HotSpot)
In short: as §1

[18] = target: T18, KDR/VEGFR2 (Homo sapiens, UniProt P35968)
T18 construct: purchased Reaction Biology Corporation (Kinase HotSpot)
In short: as §1

[19] = target: T19, MARK2/PAR-1Ba (Homo sapiens, UniProt Q7KZI7)
T19 construct: purchased Reaction Biology Corporation (Kinase HotSpot)
In short: as §1

[20] = target: T20, MEKK1 (Homo sapiens, UniProt Q13233)
T20 construct: purchased Reaction Biology Corporation (Kinase HotSpot)
In short: as §1

[21] = target: T21, MNK2 (Homo sapiens, UniProt Q9HBH9)
T21 construct: purchased Reaction Biology Corporation (Kinase HotSpot)
In short: as §1

[22] = target: T22, MST3/STK24 (Homo sapiens, UniProt Q9Y6E0)
T22 construct: purchased Reaction Biology Corporation (Kinase HotSpot)
In short: as §1

[23] = target: T23, NEK8 (Homo sapiens, UniProt Q86SG6)
T23 construct: purchased Reaction Biology Corporation (Kinase HotSpot)
In short: as §1

[24] = target: T24, PDK1/PDPK1 (Homo sapiens, UniProt O15530)
T24 construct: purchased Reaction Biology Corporation (Kinase HotSpot)
In short: as §1

[25] = target: T25, PEAK1 (Homo sapiens, UniProt Q9H792)
T25 construct: purchased Reaction Biology Corporation (Kinase HotSpot)
In short: as §1

[26] = target: T26, PKN1/PRK1 (Homo sapiens, UniProt Q16512)
T26 construct: purchased Reaction Biology Corporation (Kinase HotSpot)
In short: as §1

[27] = target: T27, RSK4 (Homo sapiens, UniProt Q9UK32)
T27 construct: purchased Reaction Biology Corporation (Kinase HotSpot)
In short: as §1

[28] = target: T28, TSSK2 (Homo sapiens, UniProt Q96PF2)
T28 construct: purchased Reaction Biology Corporation (Kinase HotSpot)
In short: as §1

[29] = target: T29, WEE1 (Homo sapiens, UniProt P30291)
T29 construct: purchased Reaction Biology Corporation (Kinase HotSpot)
T29 sequence (P30291 whole entry): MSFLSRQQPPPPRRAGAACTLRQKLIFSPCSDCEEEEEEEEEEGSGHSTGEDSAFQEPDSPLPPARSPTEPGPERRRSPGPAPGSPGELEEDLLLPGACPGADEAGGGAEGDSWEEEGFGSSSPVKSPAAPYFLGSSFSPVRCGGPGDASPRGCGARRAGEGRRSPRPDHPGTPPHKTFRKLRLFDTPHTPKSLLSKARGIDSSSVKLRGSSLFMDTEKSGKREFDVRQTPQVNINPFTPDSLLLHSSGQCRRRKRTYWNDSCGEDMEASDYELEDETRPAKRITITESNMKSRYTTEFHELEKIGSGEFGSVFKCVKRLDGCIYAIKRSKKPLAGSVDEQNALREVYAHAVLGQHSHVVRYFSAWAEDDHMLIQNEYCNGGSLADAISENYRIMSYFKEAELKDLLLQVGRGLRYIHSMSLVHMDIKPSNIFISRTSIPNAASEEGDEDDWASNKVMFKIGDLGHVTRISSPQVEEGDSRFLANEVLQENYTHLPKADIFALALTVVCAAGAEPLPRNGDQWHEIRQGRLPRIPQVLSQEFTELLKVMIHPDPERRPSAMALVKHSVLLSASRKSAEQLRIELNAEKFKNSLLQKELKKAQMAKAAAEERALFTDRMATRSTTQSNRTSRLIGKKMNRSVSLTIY
In short: as §1

[30] = target: T30, WNK1 (Homo sapiens, UniProt Q9H4A3)
T30 construct: purchased Reaction Biology Corporation (Kinase HotSpot)
T30 sequence (Q9H4A3 whole entry): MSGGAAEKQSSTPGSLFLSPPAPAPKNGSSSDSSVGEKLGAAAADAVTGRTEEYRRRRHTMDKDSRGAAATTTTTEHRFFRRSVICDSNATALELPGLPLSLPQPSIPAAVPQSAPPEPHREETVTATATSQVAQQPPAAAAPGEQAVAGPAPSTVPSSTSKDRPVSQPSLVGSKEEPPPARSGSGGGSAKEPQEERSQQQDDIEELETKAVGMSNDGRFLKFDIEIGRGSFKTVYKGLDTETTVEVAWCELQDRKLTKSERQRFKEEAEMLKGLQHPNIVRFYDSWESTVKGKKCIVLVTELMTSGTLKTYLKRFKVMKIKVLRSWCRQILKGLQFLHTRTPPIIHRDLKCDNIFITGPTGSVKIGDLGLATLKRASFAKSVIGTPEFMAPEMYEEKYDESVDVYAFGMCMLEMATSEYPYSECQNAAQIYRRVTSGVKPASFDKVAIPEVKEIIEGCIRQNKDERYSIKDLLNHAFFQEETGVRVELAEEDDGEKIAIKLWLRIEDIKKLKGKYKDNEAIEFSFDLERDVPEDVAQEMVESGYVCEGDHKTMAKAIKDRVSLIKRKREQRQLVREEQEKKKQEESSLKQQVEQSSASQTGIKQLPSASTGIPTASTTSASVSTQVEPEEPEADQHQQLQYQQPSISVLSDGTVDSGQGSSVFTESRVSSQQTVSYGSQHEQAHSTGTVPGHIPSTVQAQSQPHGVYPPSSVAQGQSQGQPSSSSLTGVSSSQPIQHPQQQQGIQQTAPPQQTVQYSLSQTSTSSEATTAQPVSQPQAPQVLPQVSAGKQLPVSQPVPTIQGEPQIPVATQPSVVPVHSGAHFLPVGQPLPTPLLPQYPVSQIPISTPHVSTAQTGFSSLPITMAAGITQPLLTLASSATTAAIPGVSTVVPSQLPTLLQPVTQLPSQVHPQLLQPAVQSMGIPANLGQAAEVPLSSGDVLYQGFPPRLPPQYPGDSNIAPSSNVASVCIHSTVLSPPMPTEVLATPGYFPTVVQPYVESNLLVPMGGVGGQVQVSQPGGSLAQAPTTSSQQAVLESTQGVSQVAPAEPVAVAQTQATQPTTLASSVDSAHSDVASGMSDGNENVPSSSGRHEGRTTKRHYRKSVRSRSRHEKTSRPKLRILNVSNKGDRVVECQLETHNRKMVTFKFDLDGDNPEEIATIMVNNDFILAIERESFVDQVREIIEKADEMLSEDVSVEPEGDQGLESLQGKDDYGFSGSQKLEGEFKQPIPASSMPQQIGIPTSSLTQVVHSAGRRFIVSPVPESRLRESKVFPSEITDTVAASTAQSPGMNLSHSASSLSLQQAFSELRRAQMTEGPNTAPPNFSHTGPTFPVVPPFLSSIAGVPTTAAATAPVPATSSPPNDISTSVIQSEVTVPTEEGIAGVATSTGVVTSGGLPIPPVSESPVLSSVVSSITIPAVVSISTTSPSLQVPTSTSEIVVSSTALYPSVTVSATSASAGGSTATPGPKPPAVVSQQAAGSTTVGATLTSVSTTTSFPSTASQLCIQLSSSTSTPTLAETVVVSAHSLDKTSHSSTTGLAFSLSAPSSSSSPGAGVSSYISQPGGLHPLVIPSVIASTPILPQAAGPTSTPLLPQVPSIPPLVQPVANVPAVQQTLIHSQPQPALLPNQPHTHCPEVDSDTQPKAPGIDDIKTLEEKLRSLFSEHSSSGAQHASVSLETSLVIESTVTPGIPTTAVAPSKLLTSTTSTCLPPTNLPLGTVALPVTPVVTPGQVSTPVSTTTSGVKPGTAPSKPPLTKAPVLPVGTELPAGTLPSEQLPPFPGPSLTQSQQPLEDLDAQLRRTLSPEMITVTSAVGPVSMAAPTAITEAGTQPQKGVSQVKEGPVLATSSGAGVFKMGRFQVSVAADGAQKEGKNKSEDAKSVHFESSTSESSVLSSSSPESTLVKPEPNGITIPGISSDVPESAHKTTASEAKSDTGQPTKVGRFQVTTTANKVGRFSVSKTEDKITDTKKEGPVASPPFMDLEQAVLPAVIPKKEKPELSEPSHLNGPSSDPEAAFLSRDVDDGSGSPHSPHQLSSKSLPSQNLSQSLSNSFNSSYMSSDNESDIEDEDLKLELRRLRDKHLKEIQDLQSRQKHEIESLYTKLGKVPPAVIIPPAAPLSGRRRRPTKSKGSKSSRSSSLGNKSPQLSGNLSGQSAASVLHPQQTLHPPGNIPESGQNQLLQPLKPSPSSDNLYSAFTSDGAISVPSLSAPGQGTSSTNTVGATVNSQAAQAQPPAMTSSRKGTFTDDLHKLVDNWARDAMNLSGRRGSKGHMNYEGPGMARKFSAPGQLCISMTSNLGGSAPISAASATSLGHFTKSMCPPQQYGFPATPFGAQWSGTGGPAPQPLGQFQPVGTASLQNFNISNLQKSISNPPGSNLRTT
In short: as §1

Compound: Cc1cnc(N[C@H]2CC[C@H](N)CC2)nc1-c1cnc2ccc(-c3ccccc3)cn12 [CDDD11-8]
- remaining activity at 1 µM [1]: 95%
- remaining activity at 1 µM [2]: 77.2%
- remaining activity at 1 µM [3]: 105%
- remaining activity at 1 µM [4]: 7.93%
- remaining activity at 1 µM [5]: 96.5%
- remaining activity at 1 µM [6]: 96.1%
- remaining activity at 1 µM [7]: 79.7%
- remaining activity at 1 µM [8]: 80.7%
- remaining activity at 1 µM [9]: 62.8%
- remaining activity at 1 µM [10]: 63.1%
- remaining activity at 1 µM [11]: 22.2%
- remaining activity at 1 µM [12]: 96.9%
- remaining activity at 1 µM [13]: 97.3%
- remaining activity at 1 µM [14]: 73.4%
- remaining activity at 1 µM [15]: 98.5%
- remaining activity at 1 µM [16]: 59.2%
- remaining activity at 1 µM [17]: 93.3%
- remaining activity at 1 µM [18]: 86.9%
- remaining activity at 1 µM [19]: 23.1%
- remaining activity at 1 µM [20]: 103%
- remaining activity at 1 µM [21]: 83.5%
- remaining activity at 1 µM [22]: 103%
- remaining activity at 1 µM [23]: 72.8%
- remaining activity at 1 µM [24]: 105%
- remaining activity at 1 µM [25]: 57.3%
- remaining activity at 1 µM [26]: 63.8%
- remaining activity at 1 µM [27]: 43.4%
- remaining activity at 1 µM [28]: 93.8%
- remaining activity at 1 µM [29]: 94.3%
- remaining activity at 1 µM [30]: 90%
